Results on five compounds are retold here after article PMC3920258, “Experimental Basis for the High Oral Toxicity of Dinophysistoxin 1: A Comparative Study of DSP” (Toxins, 2014).

Like-named read-outs stand apart in the source and are kept apart here.

Series [1] deals with occludin in Caco-2 cells. Description: Confocal microscopy imaging of occludin. In kind it is cell-based, human. To be noted: 24 h; for occludin distribution / location: 100 nM toxin; for occludin distribution, positive controls: 0.005% Triton X-100, 100 mM NaBT, 1 μM STP. How it is done:
Tight-junction strands are composed of membrane integral proteins, occludin being the best-studied member. We evaluate the integrity of such tight-junctions in Caco-2 cells treated with 100 nM OA, DTX1 and DTX2 for 24 h by labeling occludin. […] (Figure 5C).
Alexa Fluor® 488-labeled anti-occludin mouse monoclonal antibody from Invitrogen (Camarillo, CA, USA) was used for visualizing occludin, as previously described.
Briefly, differentiated Caco-2 monolayers were treated with OA, DTX1, DTX2, vehicle and positive controls of apoptosis and cellular death: staurosporine (STP), sodium butyrate (NaBT) and Triton-X 100. Immediately after treatments, the cells were fixed and incubated with the anti-occludin antibody. Each experimental condition was performed in duplicate. Confocal imaging was then carried out with a 40× oil immersion objective of a Nikon Eclipse TE2000-E inverted microscope attached to the C1 laser confocal system and EZ-C1 V.2.20 software (Nikon Instruments Europe B.V., Amstelveen, Netherlands). An Argon laser was used to excite the Alexa Fluor 488 conjugated antibody.

Series [2] concerns differentiated Caco-2 monolayers. Put plainly: Caco-2 permeability assay with microsphere-based immunoassay quantification. Format: in vitro ADME, human. To be noted: 50 and 100 nM; 3, 6, 12 and 24 h. How it is done:
With the aim of evaluating the transport of OA, DTX1 and DTX2 through the cell monolayer, we performed the permeability assays as described in Section 4.7. Caco-2 cell monolayers were incubated with OA, DTX1 and DTX2 for 3, 6, 12 and 24 h. […] According to the results, almost all the OA and DTX2 remain in the apical side (Figure 6 A,D and C,F). […] Likewise, in the absence of a cell monolayer (shown as no cells in Figure 6), all the toxins easily flow over inserts.
The permeability assay was carried out as previously described. During the assays, cell monolayer integrity was evaluated by measuring TEER at the start and end of the experiment. Once the incubation with the toxins (OA, DTX1 and DTX2) finished (after 3, 6, 12 or 24 h), the medium was collected from both the insert (donor compartment/apical side of the monolayer) and the well (receiver compartment/basolateral side of the monolayer) for toxin quantification purposes. Previously, we confirmed that the toxins easily flow over the naked inserts.
OA, DTX1 and DTX2 samples taken from the inserts/donor compartments and wells/receptor compartments where quantified, as previously described by Fraga et al.. In order to consider the cross-reactivity of the analyzed derivatives of the okadaic acid, DTX-1 and DTX-2, calibration curves were prepared using calibration solutions with CRMs of DTX-1 and DTX-2. Therefore, the quantification of DTX-1 and DTX-2 samples collected from permeability assays were quantified against their respective calibration curves.
(Passage across Caco-2 layers is used to estimate intestinal permeability.)

The test system is the same in series [3]. Description: Trans-epithelial electrical resistance (TEER) measurement. Format: cell-based, human. To be noted: 10, 50 and 100 nM; 3, 6, 12 and 24 h. How it is done:
We assessed tight junction formation stability through measurements of trans-epithelial electrical resistance (TEER). […] We studied the changes that OA, DTX1 and DTX2 induced in the TEER of the Caco-2 monolayer as a function of time. Differentiated Caco-2 monolayers were incubated with 10, 50 and 100 nM OA, DTX1 and DTX2. TEER was measured immediately before the toxins addition and after 3, 6, 12 and 24 h of incubation with them.
Trans epithelial electric resistance (TEER) was measured across differentiated Caco-2 monolayers, as previously described. The measurements were performed before the treatment with OA, DTX1 and DTX2 (controls), and after each of the incubation times established: 3, 6, 12 and 24 h. Only inserts with TEER higher than 300 Ωcm^2 before the addition of the toxin were used for further testing.

Series [4] relates to PP2A. To be noted: cited from earlier work.
Series [5] relates to differentiated Caco-2 monolayers. Put plainly: Annexin V-FITC apoptosis detection, confocal imaging. In kind it is cell-based, human. The settings on record: 24 h; for annexin V-FITC fluorescence (apoptosis): 100 nM toxin; for annexin V-FITC fluorescence (apoptosis / cell death), positive controls: 1 μM STP, 100 mM NaBT, 0.005% Triton X-100. The text has this: Cell membrane integrity assay: Some fluorescent methods allow a non-destructive evaluation of apoptosis by detecting changes in the structure of cell membranes. Annexin V has a high affinity for phosphatidylserine (PS), a phospholipid component located on the inner surface of the lipid bilayer of the cellular plasma membrane. During early apoptosis processes, this PS migrates to the outer portion, becomes exposed on the surface of the cell and can be detected by binding to annexin V labeled with a fluorescent dye. The annexin V assay was carried out in differentiated Caco-2 monolayers that were treated for 24 h with 100 nM of OA, DTX1, DTX2 or vehicle. Incubation with 0.005% Triton X-100 was used as a positive control of cell death and 1 μM staurosporine (STP) and 100 mM sodium butyrate (NaBT) as inductors of cell apoptosis.
To visualize apoptosis by confocal microscopy in the toxin-treated Caco-2 monolayers, an apoptosis detection kit containing annexin V conjugated with FITC from Immunostep (Salamanca, Spain) was used.
Caco-2 cells were seeded on glass coverslips at an initial concentration of 65 × 10^3 cells/mL and cultured for 21 days until differentiation with medium renewal each 2–3 days. On the 21st day, the cell medium was removed, and the monolayers were treated for 24 h with toxins: OA, DTX1, DTX2, vehicle and positive controls of apoptosis and cellular death (staurosporine (STP), sodium butyrate (NaBT) and Triton-X 100). Immediately after the 24 h of incubation, the medium was removed, and the cells were rinsed 3 times with PBS just before the addition of annexin V-FITC in a proportion of 1:100 diluted in the provided binding buffer. After 15 min of incubation in the dark at room temperature, the cells were rinsed again 3 times with PBS and fixed using paraformaldehyde 2% for 15 min at 4 °C. Finally, another 3 washes with PBS were required prior to mounting the coverslips over microscope glass slides with 10 μL of PBS/Glycerol (1:1) and sealing the edges with nail varnish. Confocal imaging was then carried out with a 40× oil immersion objective of a Nikon Eclipse TE2000-E inverted microscope attached to the C1 laser confocal system and EZ-C1 V.2.20 software (Nikon Instruments Europe B.V., Amstelveen, Netherlands). An argon laser was used to excite the annexin V-FITC conjugated protein (λ excitation = […], λ emission = […]).

Series [6] deals with differentiated Caco-2 cells. Description: AlamarBlue metabolic activity (viability) assay. In kind it is cell-based, human. The settings on record: 1-1000 nM toxin, 6-72 h; highest 1000 nM for 72 h. As to the method:
Metabolic activity assay: Cytotoxic effects of OA, DTX1 and DTX2 (1, 10, 20, 40, 100, 200, 500 and 1000 nM) in differentiated Caco-2 cells have been evaluated in a time-dependent manner by the AlamarBlue metabolic activity assay. Incubation with 0.01% Triton X-100 has been used as a positive control of death. Data are shown in Figure 2 as the percent of fluorescence vs. control.
The viability of the Caco-2 cells was measured by Alamar Blue assay, as previously described. Briefly, the Caco-2 cells were seeded onto 96-well plates at an initial concentration of 25,000 cells/mL and cultured until differentiation (21 days) with medium renewal every 2–3 days. Subsequently, cells were treated with increasing concentrations of OA, DTX1, DTX2 and Triton X-100 in the presence of AlamarBlue; then, fluorescence was measured at 6, 8, 10, 12, 24, 48 and 72 hours of incubation using a FL600 Microplate Fluorescence Reader from BioTek (Winooski, VT, USA) at an excitation wavelength of 530 nm and an emission wavelength of 590 nm. Control cells were considered as having 100% viability, and the results are expressed as the percentage of the fluorescence of treated cells versus the fluorescence of control ones.

Series [7] relates to mice. The settings on record: cited from earlier work.
For series [8], the system named is mice. To be noted: oral administration to mice; cited from earlier work.
For series [9], the system named is Caco-2 cells. Also on record: method as in PMID 10806372. The settings on record: 1–2 μM; cited from earlier work.
Series [10] deals with Caco-2 monolayers. The settings on record: cited from earlier work.
The test system of series [11] is Caco-2 cells. Details: method as in PMID 21093526. To be noted: after 24 h; cited from earlier work.
Series [12] relates to mice. To be noted: oral, cited from earlier work; for lethal oral dose: mice.
[13] abbreviates: EFSA, based on mice i.p. toxicity, reference OA.

As for `C=C1C(O)C2OC3(CCC(C=CC(C)C4CC(C)=CC5(OC(CC(C)(O)C(=O)O)CCC5O)O4)O3)CCC2OC1C(O)CC(C)C1CCCC2(OCCCC2C)O1` (centres unmarked) [DTX2, dinophysistoxin-2], in [1], the “occludin distribution / location” value is reported as “no modifications on the distribution of occludin”. Further, in series [2], the “transport across the Caco-2 monolayer (apical to basolateral)” value is recorded as “unable to cross the Caco-2 monolayer”. Moreover, the “change in TEER values” in [3] is on record as “did not induce any change”. The “toxicity relative to OA” value in [4] is “equal toxicity”. Further, the “annexin V-FITC fluorescence (apoptosis)” value in [5] is on record as “Lack of fluorescence”. Also, the “fluorescence intensity (percent of viability vs. control)” value in [6] was “did not show any decrease in fluorescence intensity”. Besides, the “toxicity equivalent factor (TEF)” value in series [7] (setting [13]) and in series [7] (acute intraperitoneal toxicity in mice) was 0.6 throughout. The minimum lethal dose in [7] (mice, i.p.) is recorded as 350 μg/kg b.w.

For `CCCC(=O)[O-].[Na+]` [NaBT, sodium butyrate], in series [1], the “occludin distribution, positive controls” value is “redistribution of occludin with adjacent diffuse intracellular staining and a granular appearance”. Moreover, the “annexin V-FITC fluorescence (apoptosis / cell death), positive controls” value in series [5] was “evident FITC green fluorescence zones”.

Take `C=C1[C@@H](O)[C@@H]2O[C@]3(CC[C@H](/C=C/[C@@H](C)[C@@H]4CC(C)=C[C@@]5(O[C@H](C[C@@](C)(O)C(=O)O)CC[C@H]5O)O4)O3)CC[C@H]2O[C@@H]1[C@@H](O)C[C@H](C)[C@H]1O[C@@]2(CCCCO2)CC[C@H]1C` [OA, okadaic acid]: in series [8], the “time to repair of damage to the intestinal ultrastructure” value is at most 24 h. Further, the “occludin distribution / location” value in series [1] is on record as “no modifications on the distribution of occludin”. The “transport across the Caco-2 monolayer (apical to basolateral)” value in [2] is “unable to cross the Caco-2 monolayer”. In addition, in [3], the “change in TEER values” was “did not induce any change”. Also, in [9], the “cell membrane damage and LDH release” value is listed as “no cell membrane damage nor LHD release”. For the same compound, the TEER changes entry in series [10] (1 to 2 μM, 30 to 90 min) is listed as “significant TEER reduction”; in [10] (differentiated Caco-2 monolayers, up to 200 nM for 24h), “absence of TEER changes”. The “concentration that decreased the TEER of Caco-2 monolayers” value in series [10] is recorded as at least 600 nM. The “annexin V-FITC fluorescence (apoptosis)” value in [5] is on record as “Lack of fluorescence”. Also, the “fluorescence intensity (percent of viability vs. control)” value in series [6] is given as “did not show any decrease in fluorescence intensity”. Moreover, the “applied dose found in the basolateral side” value in series [11] is given as 2%. Further, the “applied dose trapped into Caco-2 cells” value in series [11] is listed as 2%–3. Further, in series [7] (setting [13]), the “toxicity equivalent factor (TEF)” value is given as 1. For the same compound, the lethal oral dose in series [12] (ref 54) is recorded as 400 μg/kg b.w; in series [12] (ref 55), 880 μg/kg b.w. For the same compound, the results for the mice dead in [12] (1000 μg/kg b.w) and in series [12] (2000 μg/kg b.w.) were 0/5 and 4/5, respectively.

For the compound `CN[C@@H]1C[C@H]2O[C@@](C)([C@@H]1OC)n1c3ccccc3c3c4c(c5c6ccccc6n2c5c31)C(=O)NC4` [STP, staurosporine], the “occludin distribution, positive controls” value in series [1] is “redistribution of occludin with adjacent diffuse intracellular staining and a granular appearance”. The “annexin V-FITC fluorescence (apoptosis / cell death), positive controls” value in series [5] is listed as “evident FITC green fluorescence zones”.

Consider Triton X-100, for which, in series [1], the “occludin distribution, positive controls” value was “redistribution of occludin with adjacent diffuse intracellular staining and a granular appearance”. For the same compound, the “annexin V-FITC fluorescence (apoptosis / cell death), positive controls” value in series [5] was “heavily damaged cell monolayer with noticeable loss of substrate adhesion and fluorescent green dots”.
